Experimental data published in patent US20250206718A1, “NITROGEN-CONTAINING HETEROCYCLIC DERIVATIVE INHIBITOR, PREPARATION METHOD THEREFOR AND USE THEREOF” (SHANGHAI HANSOH BIOMEDICAL CO., LTD., priority 2022, published 2025).

Key:
[1] = target: Ba/F3 EGFR Del19/T790M/C797S cells (Homo sapiens, UniProt P00533, T790M/C797S, cells depend on it, form not given); test: Cell proliferation inhibition (Cell Titer-Glo), Ba/F3 EGFR Del19/T790M/C797S; format: cell-based, mouse; conditions: 72 hours, CellTiter-Glo, read-out: Ba/F3 EGFR Del19_T790M_C797S IC50
Excerpt: (§1) Experimental objective: The objective of this test example is to test the inhibitory activity of compounds on the proliferation of different EGFR C797S drug-resistant mutant cell lines Ba/F3 EGFR Del19/T790M/C797S, Ba/F3 EGFR L858R/T790M/C797S, and Ba/F3 EGFR Del19/C797S.
(§2) • Ba/F3 EGFR Del19/T790M/C797S cells were purchased from KYinno Biotechnology Co., Ltd.; • Ba/F3 EGFR Del19/C797S cells were purchased from CoBioer Biosciences Co., Ltd.; • Ba/F3 EGFR L858R/T790M/C797S cells were purchased from CoBioer Biosciences Co., Ltd.; • Cell Titer-Glo was purchased from Promega, with a catalog number of G7573; • RPMI 1640 was purchased from Gibco, with a catalog number of 22400089; • FBS was purchased from Gibco, with a catalog number of 10091148; • cell culture plates were purchased from Corning, with a catalog number of 3610.
(§3) The inhibitory activity of the compound on the proliferation of different EGFR C797S drug-resistant mutant cell lines was detected using the Cell Titer-Glo method. The different cell lines were cultured in RPMI 1640 complete culture medium containing 10% FBS under conditions of 37° C. and 5% CO2, the cells were collected by centrifugation when growing to a certain density, and adjusted to appropriate cell density after counting, the cells were spread on a white 96-well plate at 90 μL/well, and cultured in a 37° C., 5% CO2 incubator overnight, prepared compound solutions of different concentrations were added at 10 μL/well, corresponding solvent controls were set, and all wells were cultured in a 37° C., 5% CO2 incubator for 72 hours, 50 μL of CellTiter-Glo solution was added to each well, shook and mixed evenly, and incubated in the dark for 10 minutes, and a BioTek Synergy H1 microplate reader was used for reading.
(§4) The luminescence signal value was used to calculate the inhibition rate. Graphpad Prism software was used to fit the concentration and inhibition rate to a nonlinear regression curve, so as to obtain the IC50 value, as shown in the Table below for details.

[2] = target: Ba/F3 EGFR L858R/T790M/C797S cells (Homo sapiens, UniProt P00533, T790M/C797S/L858R, cells depend on it); test: Cell proliferation inhibition (Cell Titer-Glo), Ba/F3 EGFR L858R/T790M/C797S; format: cell-based, mouse; conditions: 72 hours, CellTiter-Glo, read-out: Ba/F3 EGFR L858R_T790M_C797S IC50
Excerpt: as §1, §2, §3, §4

[3] = target: Ba/F3 EGFR Del19/C797S cells (Homo sapiens, UniProt P00533, C797S, cells depend on it, form not given); test: Cell proliferation inhibition (Cell Titer-Glo), Ba/F3 EGFR Del19/C797S; format: cell-based, mouse; conditions: 72 hours, CellTiter-Glo, read-out: Ba/F3 EGFR Del19/C797S IC50
Excerpt: as §1, §2, §3, §4

[4] = Rat pharmacokinetic evaluation test; format: in vivo; conditions: Sprague-Dawley (SD), po, SD rats, male, p.o. 5 mg/kg, plasma
Method: SD rats were used as test animals to study the pharmacokinetic behavior of the compounds of the present invention in the rat body (plasma) after oral administration at a dose of 5 mg/kg.
2.2 Experimental Animals: 3 SD Rats/Group, Male, from Shanghai Jiesijie Experimental Animal Co., Ltd., Animal Production License Number (SCXK (Shanghai) 2013-0006 No. 311620400001794).
• Oral administration drug preparation: 20% solutol HS15 in 0.5% MC (methylcellulose)
20 g of a Solutol HS15 solid and 0.5 g of a MC solid powder were weighed and dissolved in 80 mL of purified water, and the mixture was vortexed, mixed until uniform, and subjected to ultrasound treatment to obtain a clear solution of 20% solutol HS15 in 0.5% MC.
The example compound was weighed into a 20 mL glass bottle, the solution was added thereto and the mixture was subjected to ultrasound treatment for 10 minutes to obtain a clear solution with a concentration of 0.5 mg/mL.
3 male SD rats were administered p.o. respectively after the 3 male SD rats were fasted overnight; the p.o. dose was 5 mg/kg and the administration volume was 10 mL/kg.
Blood collection: Before and after administration to rats, 0.2 mL of blood was collected from the jugular vein at 0.25, 0.5, 1, 2, 4, 6, 8 and 24 h, and placed in an EDTA-K2 anticoagulation tube, which was centrifuged at 6000 rpm at 4° C. for 6 min to separate plasma which was stored at −80° C.; the rats were fed 4 h after administration.
1) 160 μL of acetonitrile was added to 40 μL of plasma sample for precipitation, mixed and centrifuged at 3500×g for 5 to 20 min.
2) the treated supernatant solution was taken and subjected to LC/MS/MS to analyze the concentrations of the test compounds. LC/MS/MS analysis instrument: AB Sciex API 4000 Qtrap.
• Liquid phase conditions: Shimadzu LC-20AD pump • Chromatographic column: Agilent ZORBAX XDB-C18 (50×2.1 mm, 3.5 μm) mobile phase: liquid A is 0.1% aqueous formic acid solution, liquid B is acetonitrile • Flow rate: 0.4 mL/min • Elution time: 0-4.0 min, the eluent is as follows:
The main pharmacokinetic parameters were calculated using WinNonlin 6.1.

Ba/F3 EGFR L858R/T790M/C797S cells, sequence (P00533 whole entry T790M/C797S/L858R): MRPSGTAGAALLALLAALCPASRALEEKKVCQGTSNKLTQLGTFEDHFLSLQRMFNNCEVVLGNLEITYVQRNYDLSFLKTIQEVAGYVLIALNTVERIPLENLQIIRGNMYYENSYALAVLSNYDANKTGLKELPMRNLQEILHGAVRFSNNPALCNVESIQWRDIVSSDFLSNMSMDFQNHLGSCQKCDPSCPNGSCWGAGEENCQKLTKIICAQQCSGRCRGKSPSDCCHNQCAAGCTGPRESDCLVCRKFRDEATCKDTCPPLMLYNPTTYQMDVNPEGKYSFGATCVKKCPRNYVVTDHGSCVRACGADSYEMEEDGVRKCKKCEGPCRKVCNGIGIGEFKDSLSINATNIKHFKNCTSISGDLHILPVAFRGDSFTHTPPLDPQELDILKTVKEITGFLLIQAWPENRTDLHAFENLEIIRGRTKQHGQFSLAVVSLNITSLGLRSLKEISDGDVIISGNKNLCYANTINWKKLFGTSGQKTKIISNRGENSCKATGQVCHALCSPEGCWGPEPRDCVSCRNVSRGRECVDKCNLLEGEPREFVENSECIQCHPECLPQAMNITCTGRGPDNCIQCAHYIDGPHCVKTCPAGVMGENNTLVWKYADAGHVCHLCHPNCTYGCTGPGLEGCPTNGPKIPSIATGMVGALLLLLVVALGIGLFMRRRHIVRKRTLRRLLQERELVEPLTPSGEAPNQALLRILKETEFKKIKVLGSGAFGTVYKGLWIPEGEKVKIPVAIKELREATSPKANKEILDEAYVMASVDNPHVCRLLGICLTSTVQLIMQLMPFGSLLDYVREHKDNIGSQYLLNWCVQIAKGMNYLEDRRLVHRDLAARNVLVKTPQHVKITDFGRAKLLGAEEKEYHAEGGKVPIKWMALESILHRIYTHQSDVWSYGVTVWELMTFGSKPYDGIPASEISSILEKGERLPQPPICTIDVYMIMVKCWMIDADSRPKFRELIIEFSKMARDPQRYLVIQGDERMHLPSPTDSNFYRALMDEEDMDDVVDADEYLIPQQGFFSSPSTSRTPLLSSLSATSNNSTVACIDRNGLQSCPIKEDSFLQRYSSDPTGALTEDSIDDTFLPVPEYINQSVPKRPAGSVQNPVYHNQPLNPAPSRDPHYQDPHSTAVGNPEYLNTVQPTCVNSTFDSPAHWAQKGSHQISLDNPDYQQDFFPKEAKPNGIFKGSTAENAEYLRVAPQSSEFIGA
Ba/F3 EGFR Del19/C797S cells, sequence (P00533 with tags, fused parts or gaps DEL746-750/C797S, form open): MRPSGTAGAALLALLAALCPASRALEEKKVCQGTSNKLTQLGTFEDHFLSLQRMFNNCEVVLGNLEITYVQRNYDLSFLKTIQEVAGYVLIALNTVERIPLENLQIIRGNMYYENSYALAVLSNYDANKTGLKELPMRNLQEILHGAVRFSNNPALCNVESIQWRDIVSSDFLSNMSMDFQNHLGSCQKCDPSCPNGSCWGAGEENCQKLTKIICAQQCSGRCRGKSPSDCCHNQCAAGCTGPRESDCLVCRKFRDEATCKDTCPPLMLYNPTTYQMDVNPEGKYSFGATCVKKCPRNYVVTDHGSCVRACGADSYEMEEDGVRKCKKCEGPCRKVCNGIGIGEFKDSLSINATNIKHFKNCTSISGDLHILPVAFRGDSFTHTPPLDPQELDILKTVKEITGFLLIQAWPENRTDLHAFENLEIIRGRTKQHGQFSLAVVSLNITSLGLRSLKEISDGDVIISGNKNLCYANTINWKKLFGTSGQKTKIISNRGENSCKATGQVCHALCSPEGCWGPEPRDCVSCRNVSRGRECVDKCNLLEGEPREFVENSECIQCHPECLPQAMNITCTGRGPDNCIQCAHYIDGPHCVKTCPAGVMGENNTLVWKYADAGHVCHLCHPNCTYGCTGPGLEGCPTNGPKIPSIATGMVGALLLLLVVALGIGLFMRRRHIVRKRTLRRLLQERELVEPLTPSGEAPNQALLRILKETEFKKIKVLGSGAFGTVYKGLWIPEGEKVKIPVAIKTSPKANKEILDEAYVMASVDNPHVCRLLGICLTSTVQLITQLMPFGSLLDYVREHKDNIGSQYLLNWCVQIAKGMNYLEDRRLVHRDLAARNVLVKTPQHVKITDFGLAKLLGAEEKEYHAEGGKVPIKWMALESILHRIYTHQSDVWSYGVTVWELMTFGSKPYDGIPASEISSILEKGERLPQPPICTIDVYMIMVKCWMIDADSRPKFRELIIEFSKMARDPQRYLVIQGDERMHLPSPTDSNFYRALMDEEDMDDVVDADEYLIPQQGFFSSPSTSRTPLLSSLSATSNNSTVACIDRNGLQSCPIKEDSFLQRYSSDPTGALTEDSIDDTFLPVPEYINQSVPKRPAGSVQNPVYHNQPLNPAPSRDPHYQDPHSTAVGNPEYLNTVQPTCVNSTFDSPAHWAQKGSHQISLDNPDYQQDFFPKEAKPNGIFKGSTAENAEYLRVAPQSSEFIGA
Ba/F3 EGFR Del19/T790M/C797S cells, sequence (P00533 with tags, fused parts or gaps DEL746-750/T790M/C797S, form open): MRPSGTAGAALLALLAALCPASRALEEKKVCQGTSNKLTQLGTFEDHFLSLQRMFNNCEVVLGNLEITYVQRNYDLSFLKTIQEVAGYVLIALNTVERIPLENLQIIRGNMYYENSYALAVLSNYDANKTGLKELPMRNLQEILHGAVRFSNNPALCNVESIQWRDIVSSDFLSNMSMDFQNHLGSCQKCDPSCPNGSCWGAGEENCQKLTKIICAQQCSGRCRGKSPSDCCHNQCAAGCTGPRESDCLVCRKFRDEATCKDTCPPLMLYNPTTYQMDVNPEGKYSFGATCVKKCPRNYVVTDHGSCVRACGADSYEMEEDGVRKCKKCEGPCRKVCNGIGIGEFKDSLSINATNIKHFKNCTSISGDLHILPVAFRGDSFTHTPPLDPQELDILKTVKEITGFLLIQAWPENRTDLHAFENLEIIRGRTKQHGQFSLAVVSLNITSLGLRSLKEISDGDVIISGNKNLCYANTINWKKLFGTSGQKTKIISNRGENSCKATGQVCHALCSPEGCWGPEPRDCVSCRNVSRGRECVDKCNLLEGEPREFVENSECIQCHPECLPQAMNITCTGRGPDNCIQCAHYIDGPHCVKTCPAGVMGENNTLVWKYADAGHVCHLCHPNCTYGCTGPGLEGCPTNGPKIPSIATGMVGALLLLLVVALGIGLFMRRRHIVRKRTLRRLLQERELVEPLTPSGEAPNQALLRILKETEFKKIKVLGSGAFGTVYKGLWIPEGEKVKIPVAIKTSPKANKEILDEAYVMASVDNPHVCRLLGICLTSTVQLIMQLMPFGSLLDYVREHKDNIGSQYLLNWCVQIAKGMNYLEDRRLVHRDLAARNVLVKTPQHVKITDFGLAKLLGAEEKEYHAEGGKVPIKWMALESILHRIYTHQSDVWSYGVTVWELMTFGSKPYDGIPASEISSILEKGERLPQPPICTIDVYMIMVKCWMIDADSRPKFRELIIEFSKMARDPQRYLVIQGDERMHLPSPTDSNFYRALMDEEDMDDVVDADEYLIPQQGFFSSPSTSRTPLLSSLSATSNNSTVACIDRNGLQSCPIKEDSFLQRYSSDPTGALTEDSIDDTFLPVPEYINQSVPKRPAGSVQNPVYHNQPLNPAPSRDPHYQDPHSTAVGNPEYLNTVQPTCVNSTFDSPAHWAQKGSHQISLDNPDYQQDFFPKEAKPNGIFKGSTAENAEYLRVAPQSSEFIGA

| Compound | GI50 [1] | GI50 [2] | GI50 [3] | AUC(0-t) [4] | Cmax [4] | half-life [4] |
| --- | --- | --- | --- | --- | --- | --- |
| CC(C)c1ccc(N2C[C@H](NS(C)(=O)=O)[C@H]2C)c2cnc(Nc3ccnc(-c4cn(C)nc4Cl)n3)cc12 [Example 123, N-((2R,3S)-1-(3-((2-(3-chloro-1-methyl-1H-pyrazol-4-yl)pyrimidin-4-yl)amino)-5-isopropylisoquinolin-8-yl)-2-methylazetidin-3-yl)methanesulfonamide] | 3.3 nM | 13 nM | 6.5 nM |  |  |  |
| CC(C)c1c(F)cc(N2C[C@H](NS(C)(=O)=O)[C@H]2C)c2cnc(Nc3ccnc(-c4cn(C)nc4Cl)n3)cc12 [Example 186, N-((2R,3S)-1-(3-((2-(3-chloro-1-methyl-1H-pyrazol-4-yl)pyrimidin-4-yl)amino)-6-fluoro-5-isopropylisoquinolin-8-yl)-2-methylazetidin-3-yl)methanesulfonamide] | 5.9 nM | 8.8 nM | 2.6 nM |  |  |  |
| CC(C)c1c(F)cc(N2C[C@H](CS(C)(=O)=O)[C@H]2C)c2cnc(Nc3ccnc(-c4cn(C)nc4Cl)n3)cc12 [Example 120, N-(2-(3-chloro-1-methyl-1H-pyrazol-4-yl)pyrimidin-4-yl)-6-fluoro-5-isopropyl-8-((2R,3S)-2-methyl-3-((methanesulfonyl)methyl)azetidin-1-yl)isoquinolin-3-amine] | 7.1 nM | 14 nM | 11 nM |  |  |  |
| CC(C)c1c(F)cc(N2C[C@H](N(C)S(C)(=O)=O)[C@H]2C)c2cnc(Nc3ccnc(-c4cn(C)nc4Cl)n3)cc12 [Example 121, N-((2R,3S)-1-(3-((2-(3-chloro-1-methyl-1H-pyrazol-4-yl)pyrimidin-4-yl)amino)-6-fluoro-5-isopropylisoquinolin-8-yl)-2-methylazetidin-3-yl)-N-methyl methanesulfonamide] | 4.5 nM | 15 nM | 6.2 nM |  |  |  |
| Cc1nn(C)cc1-c1nccc(Nc2cc3c(C(C)C)c(F)cc(N4C[C@H](CS(C)(=O)=O)[C@H]4C)c3cn2)n1 [Example 125, N-(2-(1,3-dimethyl-1H-pyrazol-4-yl)pyrimidin-4-yl)-6-fluoro-5-isopropyl-8-((2R,3S)-2-methyl-3-((methanesulfonyl)methyl)azetidin-1-yl)isoquinolin-3-amine] | 6.8 nM |  | 18 nM |  |  |  |
| CC(C)c1cnc(N2CC(N(C)S(C)(=O)=O)C2)c2cnc(Nc3ccnc(-c4cn(C)nc4Cl)n3)cc12 [Example 130, N-(1-(6-((2-(3-chloro-1-methyl-1H-pyrazol-4-yl)pyrimidin-4-yl)amino)-4-isopropyl-2,7-diazanaphthalen-1-yl)azetidin-3-yl)-N-methyl methanesulfonamide] | 8.1 nM |  | 5.9 nM |  |  |  |
| CC(C)c1ccc(N2C[C@H](CS(C)(=O)=O)[C@H]2C)c2cnc(Nc3ccnc(-c4cn(C[C@@H]5CCO5)nc4Cl)n3)cc12 [Example 182, N-(2-(3-chloro-1-(((S)-oxetan-2-yl)methyl)-1H-pyrazol-4-yl)pyrimidin-4-yl)-5-isopropyl-8-((2R,3S)-2-methyl-3-((methanesulfonyl)methyl)azetidin-1-yl)isoquinolin-3-amine] | 4.4 nM | 10 nM |  |  |  |  |
| CC(C)c1ccc(N2CC(N(C)S(C)(=O)=O)C2)c2cnc(Nc3ccnc(-c4cn(C)nc4Cl)n3)cc12 [Example 67, N-(1-(3-((2-(3-chloro-1-methyl-1H-pyrazol-4-yl)pyrimidin-4-yl)amino)-5-isopropylisoquinolin-8-yl)azetidin-3-yl)-N-methyl methanesulfonamide] | 4 nM |  | 3.2 nM | 2170 ng·h/mL | 186 ng/mL | 2.7 h |
| CC(C)c1ccc(N2C[C@H](CS(C)(=O)=O)[C@H]2C)c2cnc(Nc3ccnc(-c4cn(CC(O)CF)nc4Cl)n3)cc12 (stereo partly drawn) [Example 172, 1-(3-chloro-4-(4-((5-isopropyl-8-((2R,3S)-2-methyl-3-((methanesulfonyl)methyl)azetidin-1-yl)isoquinolin-3-yl)amino)pyrimidin-2-yl)-1H-pyrazol-1-yl)-3-fluoropropan-2-ol] | 5 nM |  | 33 nM |  |  |  |
| [2H]C([2H])([2H])n1cc(-c2nccc(Nc3cc4c(C(C)C)ccc(N5C[C@H](CS(C)(=O)=O)[C@H]5C)c4cn3)n2)c(C)n1 [Example 2, 5-isopropyl-N-(2-(3-methyl-1-(methyl-d3)-1H-pyrazol-4-yl)pyrimidin-4-yl)-8-((2R,3S)-2-methyl-3-((methylsulfonyl)methyl)azetidin-1-yl)isoquinolin-3-amine] | 6.2 nM |  | 13 nM |  |  |  |
| Cc1nn(C)cc1-c1nccc(Nc2cc3c(C(C)C)ccc(N4C[C@H](CS(C)(=O)=O)[C@H]4C)c3cn2)n1 [Example 1, N-(2-(1,3-dimethyl-1H-pyrazolyl-4-yl)pyrimidin-4-yl)-5-isopropyl-8-((2R,3S)-2-methyl-3-((methanesulfonyl)methyl)azabut-1-yl)isoquinolin-3-amine] | 4.5 nM |  | 12 nM | 1410 ng·h/mL | 287 ng/mL | 2.7 h |
| Cc1nn(C)cc1-c1nccc(Nc2cc3c(C(C)C)c(F)cc(N4C[C@H](N(C)S(C)(=O)=O)[C@H]4C)c3cn2)n1 [Example 127, N-((2R,3S)-1-(3-((2-(1,3-dimethyl-1H-pyrazol-4-yl)pyrimidin-4-yl)amino)-6-fluoro-5-isopropylisoquinolin-8-yl)-2-methylazetidin-3-yl)-N-methyl methanesulfonamide] | 4.5 nM |  | 7.8 nM |  |  |  |
| [2H]C([2H])([2H])n1cc(-c2nccc(Nc3cc4c(C(C)C)ccc(N5C[C@H](CS(C)(=O)=O)[C@H]5C)c4cn3)n2)c(Cl)n1 [Example 6, N-(2-(3-chloro-1-(methyl-d3)-1H-pyrazol-4-yl)pyrimidin-4-yl)-5-isopropyl-8-((2R,3S)-2-methyl-3-((methylsulfonyl)methyl)azetidin-1-yl)isoquinolin-3-amine] | 5.1 nM | 13 nM | 5.1 nM |  |  |  |
| [2H]C([2H])([2H])c1nn(C([2H])([2H])[2H])cc1-c1nccc(Nc2cc3c(C(C)C)ccc(N4C[C@H](CS(C)(=O)=O)[C@H]4C)c3cn2)n1 [Example 4, N-(2-(1,3-bis(methyl-d3)-1H-pyrazol-4-yl)pyrimidin-4-yl)-5-isopropyl-8-((2R,3S)-2-methyl-3-((methylsulfonyl)methyl)azabut-1-yl)isoquinolin-3-amine] | 7.7 nM |  | 20 nM |  |  |  |
